Assay results taken from ChEMBL document CHEMBL1158332, “Saniculoside N from Sanicula europaea L” (J Nat Prod, 1997).

tested on: Human immunodeficiency virus; assay: Inhibition of HIV reverse transcriptase at 200 ug/ml

First: C/C=C(\C)C(=O)O[C@H]1[C@H](O)[C@@]2(CO)[C@H](CC1(C)C)C1=CC[C@@H]3[C@@]4(C)CC[C@H](O[C@@H]5O[C@H](C(=O)OCCC)[C@@H](O)[C@H](O[C@@H]6O[C@H](CO)[C@@H](O[C@@H]7OC[C@@H](O)[C@H](O)[C@H]7O)[C@H](O)[C@H]6O)[C@H]5O)C(C)(C)[C@@H]4CC[C@@]3(C)[C@]1(C)[C@@H](O)[C@H]2O
Second: O=C(/C=C/c1ccc(O)c(O)c1)O[C@H](Cc1ccc(O)c(O)c1)C(=O)O
The inhibition of the first is lower: 20.1% for the first, 57.4% for the second.

Work on `O=C(O)/C=C/c1ccc(O)c(O)c1` yielded an inhibition of 0%.
